Reference: publication PMC9133015 (Nature Communications, 2022)
Where “and” joins values, the source holds several entries; their conditions need not be identical. Equal values may be shown once.

Legend:
Assay in all cases: Kinase inhibitor specificity profiling (Reaction Biology Corporation)
Format in all cases: biochemical
Set-up in all cases: % Enzyme Activity (relative to DMSO controls): concentration or dose not given beside the values
[1] = biological target: T1, panel of 370 protein kinases (Homo sapiens, UniProt Q8TF76); conditions: 2 h, kinase Haspin; read-out: % Enzyme Activity (relative to DMSO controls)
T1 construct: purchased Reaction Biology Corporation (assay service)
T1 sequence (Q8TF76 whole entry): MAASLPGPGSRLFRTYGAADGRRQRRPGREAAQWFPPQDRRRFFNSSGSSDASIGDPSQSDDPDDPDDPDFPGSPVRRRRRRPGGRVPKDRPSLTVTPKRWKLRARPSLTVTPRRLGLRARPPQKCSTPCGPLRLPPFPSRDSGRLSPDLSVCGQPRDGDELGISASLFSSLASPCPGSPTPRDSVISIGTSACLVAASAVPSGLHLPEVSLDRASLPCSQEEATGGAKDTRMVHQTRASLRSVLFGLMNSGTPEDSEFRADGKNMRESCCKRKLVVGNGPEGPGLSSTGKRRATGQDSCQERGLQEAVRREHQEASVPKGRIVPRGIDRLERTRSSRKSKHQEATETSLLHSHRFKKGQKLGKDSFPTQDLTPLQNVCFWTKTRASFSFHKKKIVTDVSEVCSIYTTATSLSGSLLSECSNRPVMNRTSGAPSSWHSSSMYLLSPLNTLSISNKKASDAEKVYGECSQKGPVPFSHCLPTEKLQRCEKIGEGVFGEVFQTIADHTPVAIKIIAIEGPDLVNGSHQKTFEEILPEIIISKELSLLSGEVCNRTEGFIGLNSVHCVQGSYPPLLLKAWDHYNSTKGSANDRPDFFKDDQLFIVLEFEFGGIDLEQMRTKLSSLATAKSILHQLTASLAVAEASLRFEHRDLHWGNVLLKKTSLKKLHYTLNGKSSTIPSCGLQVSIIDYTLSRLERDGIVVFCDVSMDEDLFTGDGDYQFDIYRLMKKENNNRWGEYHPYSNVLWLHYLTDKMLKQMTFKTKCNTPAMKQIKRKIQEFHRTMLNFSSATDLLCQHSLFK

[2] = biological target: T2, panel of 370 protein kinases (Homo sapiens, UniProt Q9P289); conditions: 2 h, kinase MST4; read-out: % Enzyme Activity (relative to DMSO controls)
T2 construct: purchased Reaction Biology Corporation (assay service)
T2 sequence (Q9P289 whole entry): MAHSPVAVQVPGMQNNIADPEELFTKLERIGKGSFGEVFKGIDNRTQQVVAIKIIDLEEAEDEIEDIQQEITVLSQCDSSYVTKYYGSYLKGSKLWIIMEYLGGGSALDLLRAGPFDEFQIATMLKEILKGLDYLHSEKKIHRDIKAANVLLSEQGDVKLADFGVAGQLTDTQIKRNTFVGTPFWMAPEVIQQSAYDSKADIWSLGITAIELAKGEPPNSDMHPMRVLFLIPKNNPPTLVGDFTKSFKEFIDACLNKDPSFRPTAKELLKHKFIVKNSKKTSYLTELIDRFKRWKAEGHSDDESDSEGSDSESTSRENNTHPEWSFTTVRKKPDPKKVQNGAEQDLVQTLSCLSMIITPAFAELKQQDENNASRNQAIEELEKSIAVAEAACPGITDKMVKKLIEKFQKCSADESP

[3] = biological target: T3, panel of 370 protein kinases (Homo sapiens, UniProt P36888); conditions: 2 h, kinase FLT3; read-out: % Enzyme Activity (relative to DMSO controls)
T3 construct: purchased Reaction Biology Corporation (assay service)
T3 sequence (P36888 27-993): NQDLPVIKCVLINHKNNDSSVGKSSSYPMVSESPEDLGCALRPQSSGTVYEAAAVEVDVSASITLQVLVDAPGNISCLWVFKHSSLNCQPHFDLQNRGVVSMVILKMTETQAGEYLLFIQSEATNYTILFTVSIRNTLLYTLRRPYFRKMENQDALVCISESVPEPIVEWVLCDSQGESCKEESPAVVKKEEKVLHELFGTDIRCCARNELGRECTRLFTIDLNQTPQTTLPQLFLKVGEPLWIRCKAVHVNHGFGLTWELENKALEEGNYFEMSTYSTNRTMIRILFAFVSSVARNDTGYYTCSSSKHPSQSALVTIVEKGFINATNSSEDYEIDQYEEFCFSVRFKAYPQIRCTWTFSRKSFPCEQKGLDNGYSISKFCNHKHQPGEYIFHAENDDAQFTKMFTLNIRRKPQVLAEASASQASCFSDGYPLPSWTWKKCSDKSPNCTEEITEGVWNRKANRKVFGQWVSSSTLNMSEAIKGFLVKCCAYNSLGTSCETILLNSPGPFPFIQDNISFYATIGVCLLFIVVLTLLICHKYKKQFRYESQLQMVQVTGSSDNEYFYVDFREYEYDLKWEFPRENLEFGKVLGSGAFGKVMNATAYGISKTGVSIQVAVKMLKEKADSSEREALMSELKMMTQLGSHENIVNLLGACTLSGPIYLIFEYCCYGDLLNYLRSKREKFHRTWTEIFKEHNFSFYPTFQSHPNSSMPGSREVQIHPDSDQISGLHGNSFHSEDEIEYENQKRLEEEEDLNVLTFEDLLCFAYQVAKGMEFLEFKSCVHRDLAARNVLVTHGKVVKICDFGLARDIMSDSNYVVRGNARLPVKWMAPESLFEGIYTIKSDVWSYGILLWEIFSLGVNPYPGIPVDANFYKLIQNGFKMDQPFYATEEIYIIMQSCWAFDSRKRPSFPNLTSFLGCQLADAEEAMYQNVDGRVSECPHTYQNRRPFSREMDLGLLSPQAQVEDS

[4] = biological target: T4, panel of 370 protein kinases (Homo sapiens, UniProt Q15303); conditions: 2 h, kinase ERBB4/HER4; read-out: % Enzyme Activity (relative to DMSO controls)
T4 construct: purchased Reaction Biology Corporation (assay service)
T4 sequence (Q15303 26-1308): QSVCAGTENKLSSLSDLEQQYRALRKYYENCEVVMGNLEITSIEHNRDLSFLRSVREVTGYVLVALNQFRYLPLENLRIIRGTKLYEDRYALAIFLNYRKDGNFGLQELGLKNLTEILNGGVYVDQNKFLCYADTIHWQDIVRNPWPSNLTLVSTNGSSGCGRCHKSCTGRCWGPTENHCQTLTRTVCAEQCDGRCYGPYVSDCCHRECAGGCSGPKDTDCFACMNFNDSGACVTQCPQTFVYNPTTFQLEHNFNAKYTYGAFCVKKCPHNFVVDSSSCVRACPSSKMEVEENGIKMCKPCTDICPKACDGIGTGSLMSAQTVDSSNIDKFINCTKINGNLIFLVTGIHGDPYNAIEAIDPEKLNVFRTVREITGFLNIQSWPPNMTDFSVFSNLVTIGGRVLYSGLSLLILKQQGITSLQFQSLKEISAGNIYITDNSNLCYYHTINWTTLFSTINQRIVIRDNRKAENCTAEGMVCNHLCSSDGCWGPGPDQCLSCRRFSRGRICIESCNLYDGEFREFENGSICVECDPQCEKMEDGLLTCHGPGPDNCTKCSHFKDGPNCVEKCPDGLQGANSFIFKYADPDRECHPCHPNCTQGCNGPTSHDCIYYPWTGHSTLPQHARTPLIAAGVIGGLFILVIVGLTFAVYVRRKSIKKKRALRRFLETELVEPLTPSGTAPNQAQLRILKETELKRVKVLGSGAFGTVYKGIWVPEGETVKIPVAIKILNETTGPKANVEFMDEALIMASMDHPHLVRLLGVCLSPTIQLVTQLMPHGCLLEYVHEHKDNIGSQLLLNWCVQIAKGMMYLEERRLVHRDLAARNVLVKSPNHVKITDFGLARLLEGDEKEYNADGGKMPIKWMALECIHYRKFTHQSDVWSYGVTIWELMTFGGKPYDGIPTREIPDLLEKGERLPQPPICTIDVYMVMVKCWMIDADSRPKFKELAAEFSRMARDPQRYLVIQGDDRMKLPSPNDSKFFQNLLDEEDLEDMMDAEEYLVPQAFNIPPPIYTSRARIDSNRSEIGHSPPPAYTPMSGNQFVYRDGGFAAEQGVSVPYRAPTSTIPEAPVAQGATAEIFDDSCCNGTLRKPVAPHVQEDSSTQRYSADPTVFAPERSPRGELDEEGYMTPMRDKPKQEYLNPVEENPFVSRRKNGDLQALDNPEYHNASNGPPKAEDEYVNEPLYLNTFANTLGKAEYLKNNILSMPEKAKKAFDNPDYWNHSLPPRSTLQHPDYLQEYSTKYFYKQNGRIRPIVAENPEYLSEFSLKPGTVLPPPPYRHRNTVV

[5] = biological target: T5, panel of 370 protein kinases (Homo sapiens, UniProt Q15759); conditions: 2 h, kinase P38b/MAPK11; read-out: % Enzyme Activity (relative to DMSO controls)
T5 construct: purchased Reaction Biology Corporation (assay service)

[6] = biological target: T6, panel of 370 protein kinases (Homo sapiens, UniProt Q00526)
T6 construct: purchased Reaction Biology Corporation (assay service)
T6 sequence (Q00526 whole entry): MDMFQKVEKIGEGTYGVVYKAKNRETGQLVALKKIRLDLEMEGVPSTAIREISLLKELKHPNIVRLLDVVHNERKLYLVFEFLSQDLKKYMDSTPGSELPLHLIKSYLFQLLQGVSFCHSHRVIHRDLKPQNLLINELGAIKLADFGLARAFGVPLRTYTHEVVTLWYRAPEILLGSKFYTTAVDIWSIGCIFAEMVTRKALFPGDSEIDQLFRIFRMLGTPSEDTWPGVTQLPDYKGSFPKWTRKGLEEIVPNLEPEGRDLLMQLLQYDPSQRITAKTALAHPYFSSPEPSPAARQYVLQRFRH

[7] = biological target: T7, panel of 370 protein kinases (Homo sapiens, UniProt P46734); conditions: 2 h, kinase MEK3; read-out: % Enzyme Activity (relative to DMSO controls)
T7 construct: purchased Reaction Biology Corporation (assay service)

[8] = biological target: T8, panel of 370 protein kinases (Homo sapiens, UniProt Q14012); conditions: 2 h, kinase CAMK1a; read-out: % Enzyme Activity (relative to DMSO controls)
T8 construct: purchased Reaction Biology Corporation (assay service)
T8 sequence (Q14012 whole entry): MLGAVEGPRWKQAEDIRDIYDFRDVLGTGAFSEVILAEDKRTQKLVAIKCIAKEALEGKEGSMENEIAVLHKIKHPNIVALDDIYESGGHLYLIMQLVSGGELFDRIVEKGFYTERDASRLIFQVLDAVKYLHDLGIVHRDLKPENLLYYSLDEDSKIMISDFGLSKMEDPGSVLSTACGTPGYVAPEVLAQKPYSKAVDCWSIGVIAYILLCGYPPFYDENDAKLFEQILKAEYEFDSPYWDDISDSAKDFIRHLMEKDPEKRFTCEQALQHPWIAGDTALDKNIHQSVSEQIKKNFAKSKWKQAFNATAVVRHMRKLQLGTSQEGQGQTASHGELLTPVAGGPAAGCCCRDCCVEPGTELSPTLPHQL

[9] = biological target: T9, panel of 370 protein kinases (Homo sapiens, UniProt Q06418); conditions: 2 h, kinase TYRO3/SKY; read-out: % Enzyme Activity (relative to DMSO controls)
T9 construct: purchased Reaction Biology Corporation (assay service)

[10] = biological target: T10, panel of 370 protein kinases (Homo sapiens, UniProt P31749); conditions: 2 h, kinase AKT1; read-out: % Enzyme Activity (relative to DMSO controls)
T10 construct: purchased Reaction Biology Corporation (assay service)

[11] = biological target: T11, panel of 370 protein kinases (Homo sapiens, UniProt Q8TDC3); conditions: 2 h, kinase BRSK1; read-out: % Enzyme Activity (relative to DMSO controls)
T11 construct: purchased Reaction Biology Corporation (assay service)

[12] = biological target: T12, panel of 370 protein kinases (Homo sapiens, UniProt P12931); conditions: 2 h, kinase c-Src; read-out: % Enzyme Activity (relative to DMSO controls)
T12 construct: purchased Reaction Biology Corporation (assay service)

[13] = biological target: T13, panel of 370 protein kinases (Homo sapiens, UniProt Q16620); conditions: 2 h, kinase TRKB; read-out: % Enzyme Activity (relative to DMSO controls)
T13 construct: purchased Reaction Biology Corporation (assay service)

[14] = biological target: T14, panel of 370 protein kinases (Homo sapiens, UniProt Q96GD4); conditions: 2 h, kinase AURORA B; read-out: % Enzyme Activity (relative to DMSO controls)
T14 construct: purchased Reaction Biology Corporation (assay service)

[15] = biological target: T15, panel of 370 protein kinases (Homo sapiens, UniProt Q8TD19); conditions: 2 h, kinase NEK9; read-out: % Enzyme Activity (relative to DMSO controls)
T15 construct: purchased Reaction Biology Corporation (assay service)

[16] = biological target: T16, panel of 370 protein kinases (Homo sapiens, UniProt Q8IVT5); conditions: 2 h, kinase KSR1; read-out: % Enzyme Activity (relative to DMSO controls)
T16 construct: purchased Reaction Biology Corporation (assay service)

[17] = biological target: T17, panel of 370 protein kinases (Homo sapiens, UniProt P06239); conditions: 2 h, kinase LCK; read-out: % Enzyme Activity (relative to DMSO controls)
T17 construct: purchased Reaction Biology Corporation (assay service)

[18] = biological target: T18, panel of 370 protein kinases (Homo sapiens, UniProt O95747); conditions: 2 h, kinase OSR1/OXSR1; read-out: % Enzyme Activity (relative to DMSO controls)
T18 construct: purchased Reaction Biology Corporation (assay service)

[19] = biological target: T19, panel of 370 protein kinases (Homo sapiens, UniProt Q16584); conditions: kinase MLK3/MAP3K11
T19 construct: purchased Reaction Biology Corporation (assay service)
T19 sequence (Q16584 whole entry): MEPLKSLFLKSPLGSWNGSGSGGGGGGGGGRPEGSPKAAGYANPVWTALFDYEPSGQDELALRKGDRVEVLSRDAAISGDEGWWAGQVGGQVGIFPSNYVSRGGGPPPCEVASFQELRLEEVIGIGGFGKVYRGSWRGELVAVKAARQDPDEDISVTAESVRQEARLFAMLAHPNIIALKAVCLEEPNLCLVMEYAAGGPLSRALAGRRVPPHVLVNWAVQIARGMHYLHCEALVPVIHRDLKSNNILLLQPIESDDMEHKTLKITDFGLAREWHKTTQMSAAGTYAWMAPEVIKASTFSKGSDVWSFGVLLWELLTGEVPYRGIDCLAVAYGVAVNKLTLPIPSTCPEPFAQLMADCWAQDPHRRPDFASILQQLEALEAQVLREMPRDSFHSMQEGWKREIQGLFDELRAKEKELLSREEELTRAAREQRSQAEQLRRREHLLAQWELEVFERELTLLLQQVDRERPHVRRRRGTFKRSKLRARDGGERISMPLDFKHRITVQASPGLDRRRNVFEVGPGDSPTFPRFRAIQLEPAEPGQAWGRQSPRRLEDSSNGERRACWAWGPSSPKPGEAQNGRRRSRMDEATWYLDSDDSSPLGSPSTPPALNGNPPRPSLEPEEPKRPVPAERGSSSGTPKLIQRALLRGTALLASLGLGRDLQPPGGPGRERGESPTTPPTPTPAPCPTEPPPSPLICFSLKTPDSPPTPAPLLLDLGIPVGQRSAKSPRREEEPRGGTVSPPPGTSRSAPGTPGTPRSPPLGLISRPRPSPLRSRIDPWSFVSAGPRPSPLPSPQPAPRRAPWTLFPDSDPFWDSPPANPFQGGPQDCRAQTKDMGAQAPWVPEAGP

[20] = biological target: T20, panel of 370 protein kinases (Homo sapiens, UniProt P25098); conditions: 2 h, kinase GRK2; read-out: % Enzyme Activity (relative to DMSO controls)
T20 construct: purchased Reaction Biology Corporation (assay service)

[21] = biological target: T21, panel of 370 protein kinases (Homo sapiens, UniProt Q86UX6); conditions: 2 h, kinase STK32C/YANK3; read-out: % Enzyme Activity (relative to DMSO controls)
T21 construct: purchased Reaction Biology Corporation (assay service)

CCN1CCN(C(=O)c2ccc(Nc3ncc(F)c(-c4ccc5nc(N(C)C)sc5c4)n3)nc2)CC1 [YK-2-69]
remaining activity at 1 µM [1]: 99%
remaining activity at 1 µM [2]: 98.4%
remaining activity at 1 µM [3]: 92.7%
remaining activity at 1 µM [4]: 88.5%
remaining activity at 1 µM [5]: 94.9%
% Enzyme Activity (relative to DMSO controls) ([6]; kinase CDK3/cyclin E): 106.69% and 103.49%
% Enzyme Activity (relative to DMSO controls) ([6]; kinase CDK3/cyclin E2): 101.82% and 90.67%
remaining activity at 1 µM [7]: 103%
remaining activity at 1 µM [8]: 101%
remaining activity at 1 µM [9]: 96.6%
remaining activity at 1 µM [10]: 98.3%
remaining activity at 1 µM [11]: 94%
remaining activity at 1 µM [12]: 99.7%
remaining activity at 1 µM [13]: 88.6%
remaining activity at 1 µM [14]: 94.5%
remaining activity at 1 µM [15]: 105%
remaining activity at 1 µM [16]: 94.3%
remaining activity at 1 µM [17]: 101%
remaining activity at 1 µM [18]: 89.2%
% Enzyme Activity (relative to DMSO controls) [19]: 97.08% and 87.23%
remaining activity at 1 µM [20]: 112%
remaining activity at 1 µM [21]: 96.8%
